# Test results from paper PMC12741294, “Phenazine 5,10-dioxide analogues as potential therapeutics in AML: Efficacy on patient-derived blasts, in zebrafish larvae xenografts and synergy with venetoclax” (Translational Oncology, 2025).
# Read-outs that look alike come from different tables or passages of the source.
# Legend:
# AML patient blasts = assay: Cell death of patient-derived AML blasts, Annexin V/propidium iodide flow cytometry, 24 h; format: cell-based, human; conditions: compared with Cpd 3, 6, 9
# Excerpt: Blasts from 61 non-selected patients were used in this study. Supplementary Table 1 presents the patient information, classification, and genetic aberration of the blasts. Peripheral blood mononuclear cells (PBMC) from healthy volunteers were obtained from freshly drawn peripheral blood from the Department of Immunology and Transfusion Medicine, Haukeland University Hospital, Bergen, Norway. AML blasts and PBMCs were isolated by density gradient separation of peripheral blood. The patient samples contained at least 95 % leukemic blasts after isolation. Bone marrow (BM) aspirate from a healthy donor was kindly provided by Professor BT Gjertsen, Dept. Clinical Science, University of Bergen (REK Vest 2012/2247). The patient blasts were cultured in StemSpan medium supplemented with SCF, Flt-3 ligand, and G-CSF, each at a final concentration of 20 ng/mL [22, 23], treated with phenazine 5,10-dioxides or daunorubicin (DNR) for 24 h before cell death was assessed by flow-cytometric analyses as described previously. Viable cells were defined as Annexin V/propidium iodide double negative cells.
# zebrafish larvae [1] = assay: Toxicity in zebrafish larvae (viability, MTD, morphology); format: in vivo; conditions: for Melanocyte abnormalities: wild-type AB-strain zebrafish larvae
# Protocol: Phenazine 5,10-dioxides were dissolved in DMSO to give final concentrations between 5 and 20 mM and administered to the zebrafish larvae by diluting the stock solutions in the embryo medium. All compounds were tested up to a maximal concentration of 100 µM. […]
# (§1) Zebrafish larvae heart rate was analysed as described by Førde et al.. To examine zebrafish larvae for morphological abnormalities, they were imaged using a Nikon Diaphot 300 inverted microscope fitted with a Nikon DS-Fi3 microscope camera and DS-L4 camera control unit.
# MOLM-13 [2] = assay: WST-1 metabolic activity and Bliss synergy with VTX, MOLM-13; format: cell-based, human; conditions: for Mean Bliss interaction index (synergy score): Cpd 1 + VTX, all tested combinations
# Protocol: (§2) To study the combination effect of phenazine 5,10-dioxides and VTX in AML cell lines, the cells were seeded in 96-well plates at 35,000 cells per well for 24-hour experiments or 20,000 cells per well for 48-hour experiments. Phenazine 5,10-dioxides and VTX, alone or in combination, were added in desired concentrations and cell plates incubated for 24 and 48 h. Thereafter, WST-1 was added to each well according to the manufacturer’s instructions and incubated for two hours. Absorbance was measured at 450 nm with 620 nm reference wavelength in a Wallac EnVision® 2130 multilabel plate reader, and this value was used to calculate relative metabolic activity compared to untreated cells. The cells were next fixed in 2 % formaldehyde with 0.01 mg/ml Hoechst 33,342 dye dissolved in PBS. Nuclear morphology was studied using a Nikon Diaphot 300 microscope to confirm that metabolic activity correlated with the presence of apoptotic nuclei (Supplementary Figure 1).
# (§3) To calculate drug interaction, cell metabolic activity results were plotted into the interaction calculation software SynergyFinder+ [31], and Bliss independence score was used to calculate synergy.
# AML cell lines = assay: Preliminary combination of Cpd 1 with AML drugs; format: cell-based, human; conditions: in combination with DNR, cytarabine and etoposide, data not shown
# MOLM-13 [3] = system: MOLM-13; parameters: method as in PMID 34124675; conditions: ref [6]; cited from earlier work
# AML patients = system: AML patients; parameters: method as in PMID 32786187; conditions: ref [14]; cited from earlier work
# MOLM-13 [4] = assay: Cytotoxicity towards MOLM-13 cells (EC50); format: cell-based, human; conditions: no reference mark in Table 3
# Protocol: Table 3 Toxicity of phenazine 5,10-dioxides in zebrafish larvae. Maximum tolerated doses and observed morphological alterations in zebrafish larvae caused by phenazine 5,10-dioxides dissolved in embryo medium for 48 h. Cpd: compound. MTD: maximum tolerated dose. a: EC50 values from, –: not observed. | column: MOLM-13 EC50 (µM)
# zebrafish larvae [5] = assay: Zebrafish larvae heart rate; format: in vivo; conditions: intravenously injected, 4 nL injection, 100 µM; 24 and 48 h
# Protocol: as §1
# [6] = system: xenograft MOLM-13 cells in zebrafish larvae; assay: Tumour burden of xenograft MOLM-13 cells in zebrafish larvae; format: in vivo; conditions: VTX 4 nL 50 µM intravenous injection; 24 h; p < 0.001
# Protocol: Prior to transplantation into zebrafish larvae, MOLM-13 cells were stained with the fluorescent marker CellTracker™ Deep Red. The cell suspension was centrifuged at 300 relative centrifugal force (RCF) for 5 min, and the medium removed. Thereafter, the cells were resuspended in serum-free RPMI-1640 medium containing 1.5 µM CellTracker™ Deep Red and incubated for 30 min at 37 °C. Excess dye was removed by centrifugation for five minutes at 300 RCF, removal of the medium and the cells were resuspended in fresh RPMI-medium to a final concentration of 10 million cells/mL. Intravenous injection of MOLM-13 cells into zebrafish larvae was performed as described in Førde et al.. The zebrafish larvae xenografts were incubated at 31.5 °C.
# For quantification of tumour burden in zebrafish larvae a Nikon Ti-E inverted microscope fitted with an Andor Dragonfly 505 spinning disk confocal unit and iXon 888 Life EMCCD camera setup was used. […] The zebrafish larvae were scored based on the number of cells successfully injected and divided into treatment or control groups. […]
# The Fiji macro described in [30] was used to determine MOLM-13 cancer cell burden in zebrafish larvae. […] After defining the boundary of the larva and segmentation from the background, the cells are segmented so that individual cells can be quantified (both size and number). […]
# OCI-AML3 = assay: WST-1 metabolic activity and Bliss synergy with VTX, OCI-AML3; format: cell-based, human; conditions: VTX alone; 24 h
# Protocol: as §2, §3
# [7] = ref [29]; cited from earlier work
# [8] = parameters: method as in PMID 38778732; conditions: patients receiving 400 mg VTX as a single dosage; ref [43]; cited from earlier work
# [9] = dissolved in embryo medium for 48 h
# [10] = dissolved in embryo medium for 48 h, concentration from which observed
compound,measurement,setting,value
"[O-][n+]1c2cccc(O)c2[n+]([O-])c2cccc(O)c21 [Cpd 1, 1,6-dihydroxyphenazine 5,10-dioxide]",Potency towards the patient blasts,AML patient blasts,lowest potency
same,Lethality to zebrafish larvae,"zebrafish larvae [1]; 100 µM (highest concentration tested), 48 h",not lethal
same,Viability of zebrafish larvae (Fig. 2A annotation),"zebrafish larvae [1]; 48 h of exposure, up to 100 µM",Non-toxic
same,MTD (maximum tolerated dose),zebrafish larvae [1]; [9],>100 µM
same,Melanocyte abnormalities,zebrafish larvae [1],not observed
same,Mean Bliss interaction index (synergy score),MOLM-13 [2]; 24 h,15.56
same,Mean Bliss interaction index (synergy score),MOLM-13 [2]; 48 h,10.90
same,Drug interaction,AML cell lines,additive effects
same,EC50,MOLM-13 [3],2 ± 0.1 µM
"COc1cccc2c1[n+]([O-])c1cccc(O)c1[n+]2[O-] [Cpd 2, Myxin]",Only concentration that did not cause lethality,zebrafish larvae [1]; 48 h exposure,5 µM
same,MTD (maximum tolerated dose),zebrafish larvae [1]; [9],5 µM
same,Pigmentation alterations,zebrafish larvae [1]; [10],From 10 µM
same,Concentration killing zebrafish larvae after six hours,"zebrafish larvae [1]; in embryo medium, data not shown",30000 nM
same,Melanocyte abnormalities,zebrafish larvae [1],caused melanocyte abnormalities
same,EC50,MOLM-13 [3],1.4 ± 0.3 µM
Nc1ncn([C@@H]2O[C@H](CO)[C@@H](O)[C@H]2O)c(=O)n1 [azacitidine],Median overall survival,AML patients,9.6 months
COc1cccc2c1[n+]([O-])c1ccccc1[n+]2[O-] [Cpd 10],EC50,MOLM-13 [4],1.4 ± 0.1 µM
same,MTD (maximum tolerated dose),zebrafish larvae [1]; [9],<10 µM
same,Muscle fibre alterations,zebrafish larvae [1]; [10],From 10 µM
same,Pigmentation alterations,zebrafish larvae [1]; [10],From 10 µM
same,Melanocyte abnormalities,zebrafish larvae [1],caused melanocyte abnormalities
"CC1(C)CCC(CN2CCN(c3ccc(C(=O)NS(=O)(=O)c4ccc(NCC5CCOCC5)c([N+](=O)[O-])c4)c(Oc4cnc5[nH]ccc5c4)c3)CC2)=C(c2ccc(Cl)cc2)C1 [VTX, venetoclax]",Heartrate of zebrafish larvae relative to control,zebrafish larvae [5],No significant differences
same,Cancer cell burden relative to control,[6],reduced cancer cell burden
same,Relative metabolic activity,"MOLM-13 [2]; 6 nM VTX alone, 48 h",59%
same,Concentration until which no reduction in metabolic activity,OCI-AML3,6 µM
same,Sensitivity of OCI-AML3 cells,OCI-AML3,high resistance
same,Permeability,[7],low permeability
same,Cmax,[8],~2500 nM
